US10407431B2, “Compounds and compositions as toll-like receptor 7 agonists” (NOVARTIS AG, priority 2014, dated 2019)

Molecular target: human TLR7 (Homo sapiens (Human), UniProt Q9NYK1)
Test: Reporter Gene Assay (HEK293 stably transfected with human TLR7 and NF-kB-driven luciferase reporter)
Assay type: cell-based
Settings: HEK293 cells stably transfected with human TLR7 and pNifty-Luciferase; 7 hours incubation; EC50 relative to the activity of resiquimod set to 100%
Procedure: As a control assay, normal Hek293 transfected with pNifty-Luc were used. […] Bright-Glo™ Luciferase assay buffer and substrate were supplied by Promega #E263B and #E264B (assay substrate and buffer respectively). 384 well clear-bottom plates were supplied by Greiner bio-one (#789163-G) and were custom bar-coded plates.
Cells were plated at 25,000 cells/well in 384-well plates in a final volume of 50 μl of media. Cells were allowed to adhere to the plates after overnight (18 hours) culture at 37° C. and 5% CO2. Serially diluted experimental and positive control compounds were then dispensed to each well and incubated for 7 hours at 37° C. and 5% CO2. Cells stimulated with DMSO alone also serve as negative controls. After the incubation, 30 μl of the pre-mix assay buffer and substrate buffer were added to each well according to manufacturer's instructions. The luminescence signal was read on a CLIPR machine with an integration time of 20 seconds per plate.

human TLR7, sequence (Q9NYK1 27-1049): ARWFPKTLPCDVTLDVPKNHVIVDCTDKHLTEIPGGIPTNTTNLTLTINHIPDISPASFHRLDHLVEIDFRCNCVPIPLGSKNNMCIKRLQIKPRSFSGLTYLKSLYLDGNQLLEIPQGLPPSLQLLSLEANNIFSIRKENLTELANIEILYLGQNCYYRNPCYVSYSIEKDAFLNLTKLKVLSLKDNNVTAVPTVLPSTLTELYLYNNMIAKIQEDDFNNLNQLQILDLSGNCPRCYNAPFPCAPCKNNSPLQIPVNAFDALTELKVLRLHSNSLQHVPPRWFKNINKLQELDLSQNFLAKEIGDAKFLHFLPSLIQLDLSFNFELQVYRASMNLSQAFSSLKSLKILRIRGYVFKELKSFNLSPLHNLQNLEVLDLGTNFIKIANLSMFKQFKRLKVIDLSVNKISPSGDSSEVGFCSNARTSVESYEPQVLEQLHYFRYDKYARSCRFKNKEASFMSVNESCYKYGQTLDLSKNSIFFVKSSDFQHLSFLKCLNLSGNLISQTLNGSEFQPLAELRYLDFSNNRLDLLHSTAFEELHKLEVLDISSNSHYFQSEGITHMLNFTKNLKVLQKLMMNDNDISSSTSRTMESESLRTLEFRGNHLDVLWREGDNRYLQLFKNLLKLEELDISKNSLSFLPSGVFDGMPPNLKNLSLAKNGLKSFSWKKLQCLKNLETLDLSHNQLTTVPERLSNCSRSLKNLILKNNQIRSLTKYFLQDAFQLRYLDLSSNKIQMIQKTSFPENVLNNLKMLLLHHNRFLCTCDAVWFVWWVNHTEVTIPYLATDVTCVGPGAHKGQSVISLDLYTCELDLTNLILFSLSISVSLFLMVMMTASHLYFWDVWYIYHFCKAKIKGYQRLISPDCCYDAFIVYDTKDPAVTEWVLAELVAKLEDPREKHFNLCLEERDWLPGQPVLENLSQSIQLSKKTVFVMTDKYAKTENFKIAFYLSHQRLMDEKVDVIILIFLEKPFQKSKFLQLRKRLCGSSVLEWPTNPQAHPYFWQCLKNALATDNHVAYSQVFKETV

Row | Compound | EC50 [µM]
1 | CCCCCNc1nc(N)nc2ccn(Cc3ccc(CC(=O)OCCN4CCNCC4)cc3OC)c12 [Example 25, 2-(piperazin-1-yl)ethyl 2-(4-{[2-amino-4-(pentylamino)-5H-pyrrolo[3,2-d]pyrimidin-5-yl]methyl}-3-methoxyphenyl)acetate] | 0.03
2 | CCCCCNc1nc(N)nc2ccn(Cc3ccc(CC(=O)OCCN4CCOCC4)cc3OC)c12 [Example 24, 2-(morpholin-4-yl)ethyl 2-(4-{[2-amino-4-(pentylamino)-5H-pyrrolo[3,2-d]pyrimidin-5-yl]methyl}-3-methoxyphenyl)acetate] | 0.008
3 | CCCC[C@@H](CO)Nc1nc(N)nc2ccn(Cc3ccc(CC(=O)OCC(=O)N4CCOCC4)cc3OC)c12 [Example 13, (S)-2-morpholino-2-oxoethyl 2-(4-((2-amino-4-((1-hydroxyhexan-2-yl)amino)-5H-pyrrolo[3,2-d]pyrimidin-5-yl)methyl)-3-methoxyphenyl)acetate] | 0.01
4 | CCCCCNc1nc(N)nc2ccn(Cc3ccc(C(=O)OC)cc3OC)c12 [Example 1, methyl 4-((2-amino-4-(pentylamino)-5H-pyrrolo[3,2-d]pyrimidin-5-yl)methyl)-3-methoxybenzoate] | 0.01
5 | CCCCCNc1nc(N)nc2ccn(Cc3cc(OCC(=O)OCC(=O)N4CCOCC4)ccc3OC)c12 [Example 8, 2-morpholino-2-oxoethyl 2-(3-((2-amino-4-(pentylamino)-5H-pyrrolo[3,2-d]pyrimidin-5-yl)methyl)-4-methoxyphenoxy)acetate] | 0.04
6 | CCCC[C@@H](CO)Nc1nc(N)nc2ccn(Cc3cc(CN4CCNCC4)ccc3OC)c12 [Example 30, (S)-2-((2-amino-5-(2-methoxy-5-(piperazin-1-ylmethyl)benzyl)-5H-pyrrolo[3,2-d]pyrimidin-4-yl)amino)hexan-1-ol] | 0.08
7 | CCCCCNc1nc(N)nc2ccn(Cc3ccc(CN4CCNCC4)cc3OC)c12 [Example 32, 5-(2-methoxy-4-(piperazin-1-ylmethyl)benzyl)-N4-pentyl-5H-pyrrolo[3,2-d]pyrimidine-2,4-diamine] | < 0.005
8 | CCCCCNc1nc(N)nc2ccn(Cc3cc(N)ccc3OC)c12 [Example 34, 5-(5-amino-2-methoxybenzyl)-N4-pentyl-5H-pyrrolo[3,2-d]pyrimidine-2,4-diamine] | 0.001
9 | CCCC[C@@H](CO)Nc1nc(N)nc2ccn(Cc3cc(CC(=O)OCC(=O)N4CCOCC4)ccc3OC)c12 [Example 14, (S)-2-morpholino-2-oxoethyl 2-(3-((2-amino-4-((1-hydroxyhexan-2-yl)amino)-5H-pyrrolo[3,2-d]pyrimidin-5-yl)methyl)-4-methoxyphenyl)acetate] | 0.01
